Structures can show the parent of a compound that is named as a salt.

These results are taken from patent publication US20240050735A1, “SYSTEMS AND METHODS FOR TREATING AND INHIBITING WOUND INFECTIONS” (priority 2020, published 2024).

Series [1] concerns MRSA biofilm-infected porcine skin wound. Description: Ex vivo anti-biofilm efficacy, standard plate counting assay. It is filed as cell-based, Methicillin-resistant S. aureus (MRSA) USA300. As to the method:
Same as previous tests, an ex vivo MRSA biofilm-infected porcine skin wound model was used here. First the biofilm treatment efficacy was tested when different current intensities were used with a fixed VAN loading concentration at 1 mg mL^−1. After a single treatment for 1 hour, wound tissues were incubated for 24 hours in a 37° C. incubator to allow VAN to take effect. After incubation, tissue samples were collected and evaluated for bacterial count using the standard plate counting assay for MRSA colony. […] Treating the biofilm with no current for 1 hour (only VAN diffusion) or a low current of 0.5 mA cm^−2 for 1 hour induced a minimal MRSA count reduction to 10^9.8 CFU g^−1 and 10^9.6 CFU g^−1, respectively. When 19 mA cm^−2, 38 mA cm^−2, and 75 mA cm^−2 were applied, MRSA count was further reduced to 10^8.6 CFU g^−1, 10^8.3 CFU g^−1 and 10^7.6 CFU g^−1, respectively (see FIGS. 5A and 5F). […] Because 75 mA cm^−2 had better anti-biofilm efficacy than other conditions, it was selected for the following tests.
The fetal pig skin samples (approximately 30×30 mm) were immersed in 10% (v/v) bleach for 5 minutes after hair removal. Then, skin samples were sterilized in 70% ethanol for 30 minutes. The surface of skin sample was further cleaned by 10% povidone-iodine and 70% isopropanol to prevent contamination. A 6-mm disposable biopsy punch was used to create an excisional wound. Samples were put into sterile 10-cm petri-dishes filled with sterile PBS (6 mL). The wound was then inoculated with 1×10^8 CFU mL^−1 MRSA bacteria solution (20 μL). The bacteria were allowed to grow in a 37° C. Heratherm™ compact microbiological incubator (ThermoFischer Scientific™, Waltham, Mass., USA) for 48 hours to form mature biofilms.
The HIC-based biofilm treatment system 100 embodiment shown in FIG. 18 was used to test electrical debridement treatment of high-intensity current on ex vivo MRSA biofilm infected skin wounds. The MRSA biofilm infected skin wound was sandwiched between anode and cathode HIC-based devices (i.e., the working device 104 and the counter device 106). To evaluate the anti-biofilm effect of high current intensity only, PBS (5 mL) was filled in both drug/buffer chamber 114 and PBS chamber 122 and then 0.5 mA cm^−2, 19 mA cm^−2, 38 mA cm^−2, and 75 mA cm^−2 was applied for 1 hour, respectively. The device/skin wound contact area was 0.502 cm^2. Skin samples were collected by 8-mm biopsy punch immediately after test or at 24 hours after testing. To evaluate the biofilm thickness before and after different treatments, samples were embedded in tissue freezing medium (OCT) and sectioned at 8 μm. After being imaged in microscope, the thickness of biofilms after different treatments were measured using ImageJ software. To evaluate the colony-forming unit (CFU) counts per gram of MRSA from infected skin wounds, samples were homogenized in PBS (10 mL) and diluted with PBS, and then transferred to standard plate counting assay. The bactericidal efficacy was calculated as follows:
The HIC-based biofilm treatment system 100 embodiment shown in FIG. 18 was used to evaluate combined biofilm treatment efficacy of electrical debridement and VAN delivery. To evaluate the anti-biofilm treatment efficacy of current intensity, 0 mA cm^−2 (passive diffusion) to 75 mA cm^−2 was applied on the HIC-based biofilm treatment system 100 with 1 mg mL^−1 VAN loaded in HIC-based working device 104, respectively. […] To further enhance the anti-biofilm efficacy of electrical debridement and high concentration delivery of VAN, two treatments were applied, named protocol #1 and protocol #2. Protocol #1 applied two treatments (treatment: 75 mA cm^−2 for 1 hour, 1 mg mL^−1 VAN loaded in HIC-based working device 104) separated by 6 hours. Protocol #2 applied two treatments (treatment same as Protocol #1) separated by 24 hours. CFU was counted 24 hours after last treatment using the standard spread counting assay. The bactericidal efficacy was calculated accordingly. […]

In the next series the test system is C. difficle. The settings on record: cited from earlier work.
For series [2] the following is noted: conventional transdermal iontophoresis 0.31 mA cm^−2; cited from earlier work.
The next series concerns planktonic MRSA. Description: Minimum inhibitory concentration (MIC) to planktonic MRSA. It is filed as cell-based, Methicillin-resistant S. aureus (MRSA) USA300. The settings on record: Staphylococcus aureus; planktonic MRSA cells, 24 hours, OD600. The protocol:
Methicillin-resistant S. aureus (MRSA) USA300 strain was used in this study. The planktonic bacteria were cultured in LB medium. Vancomycin hydrochloride (Apexbio Technology LLC, Houston, Tex., USA) and daptomycin (Combi-Blocks, San Diago Calif., USA) were used to treat MRSA biofilm. The minimum inhibitory concentration (MIC) of vancomycin hydrochloride to planktonic MRSA cells was determined as 1.2 μg mL^−1 (see FIG. 17B), which was in consistent with the results reported previously.
MRSA bacteria was cultured in LB media in a 37° C. water shaking bath overnight to reach the concentration of 1×10^8 CFU mL^−1. Then, they were diluted to 10^5 CFU mL^−1 in 96-well plates by adding different concentrations of VAN solutions. After incubation for 24 hours without shaking, MIC of VAN to inhibit MRSA growth was measured by a Biotek Synergy H1 hybrid multi-mode microplate reader (BioTek, Winooski, Vt., USA) at OD600. To evaluate the killing time of VAN to bacteria in stationary phase (1×10^8 CFU mL^−1), VAN powder was added to bacteria solution to obtain concentration of 1 mg mL^−1, 3 mg mL^−1, 5 mg mL^−1, and 10 mg mL^−1, respectively, while remaining MRSA concentration of 1×10^8 CFU mL^−1. After incubation in a 37° C. water bath for 1 day, 2 days, 3 days and 4 days, the CFU of MRSA cells was tested by the standard plate spread counting assay, respectively. […]

[3] abbreviates: 75 mA cm^−2 1 hour, 1 mg mL^−1 VAN, 24 hours after.

The MIC is the least concentration at which growth counts as inhibited. `CN[C@H](CC(C)C)C(=O)N[C@H]1C(=O)N[C@@H](CC(N)=O)C(=O)N[C@H]2C(=O)N[C@H]3C(=O)N[C@H](C(=O)N[C@H](C(=O)O)c4cc(O)cc(O)c4-c4cc3ccc4O)[C@H](O)c3ccc(c(Cl)c3)Oc3cc2cc(c3O[C@@H]2O[C@H](CO)[C@@H](O)[C@H](O)[C@H]2O[C@H]2C[C@](C)(N)[C@H](O)[C@H](C)O2)Oc2ccc(cc2Cl)[C@H]1O` [VAN, Vancomycin hydrochloride]: the bactericidal efficacy in series [1] (0.5 mA cm^−2 1 hour, 1 mg mL^−1 VAN, 24 hours after) was determined as 4.4±2.76 times; in series [1] (19 mA cm^−2 1 hour, 1 mg mL^−1 VAN, 24 hours after) it was 57.8±50.30 times; in series [1] (38 mA cm^−2 1 hour, 1 mg mL^−1 VAN, 24 hours after) it was 81.4±13.34 times; in series [1] (setting [3]) it was 452.8±115.32 times; in series [1] (75 mA cm^−2 1 hour, 3 mg mL^−1 VAN loading) it was 112.6±13.58 times; in series [1] (75 mA cm^−2 1 hour, 5 mg mL^−1 VAN loading), 5.1±3.80 times. Besides, the bactericidal efficacy in series [1] (75 mA cm^−2 1 hour, 10 mg mL^−1 VAN loading) amounted to 9.7±2.92 times; in series [1] (passive diffusion 1 hour, 1 mg mL^−1 VAN, 24 hours after) it was 2.7±2.06 times. This molecule yielded a bactericidal rate in series [1] (setting [3]) of 99.8%. Besides, the “MRSA bacterial count reduction in wound tissue” value in series [1] (single 1 hour treatment, 75 mA cm^−2, 1 mg mL^−1 VAN) stood at 2.6 login scales. Moreover, the “concentration at which antibacterial activity starts to decrease (paradoxical effect)” value in the series with C. difficle is listed as 64 ×MIC. For the same molecule, in series [2], the “permeation coefficient (Pc)” value is 2.21e+11 ×10⁻⁶ cm/s. In the series on planktonic MRSA, the MIC came out at 1.2 µg/mL.
